Measured values as given in patent US7709484B1, “Substituted melanocortin receptor-specific piperazine compounds” (Palatin Technologies, Inc., priority 2004, dated 2010).

What was measured:
hMC4-R = hMC4-R (Homo sapiens, UniProt P32245); test: Competitive inhibition binding assay, 125I-NDP-α-MSH, hMC4-R membranes; details: 1 μM test compound; 0.4 nM 125I-NDP-α-MSH; mean of triplicate; results less than 0% reported as 0%; read-out: Inhibition at 1 μM MC4-R
Method: (§1) Competitive inhibition assay. A competitive inhibition binding assay was conducted using membranes prepared from hMC1-R or B-16 mouse melanoma cells (containing MC1-R), hMC3-R, hMC4-R, and hMC5-R, and using 0.4 nM ^125I-NDP-α-MSH (New England Nuclear, Boston, Mass., USA) in 50 mM HEPES buffer containing 1 mM MgCl2, 2 mM CaCl2, and 5 mM KCl, at pH 7.2. The assay tube also contained a chosen concentration of the test compound of this invention, typically a 1 μM concentration, for determining its efficacy in inhibiting the binding of ^125I-NDP-α-MSH to its receptor. Non-specific binding was measured by complete inhibition of binding of ^125I-NDP-α-MSH in the assay with the presence of 1 μM α-MSH.
(§2) Incubation was for 90 minutes at room temperature, after which the assay mixture was filtered and the membranes washed three times with ice cold buffer. The filter was dried and counted in a gamma counter for remaining radioactivity bound to the membranes. 100% specific binding was defined as the difference in radioactivity (cpm) bound to cell membranes in the absence and presence of 1 μM α-MSH. The cpm obtained in the presence of test compounds are normalized with respect to 100% specific binding to determine the percent inhibition of ^125I-NDP-a-MSH binding. Each assay was conducted in triplicate and the actual mean values are described, with results less than 0% reported as 0%.

hMC5-R = hMC5-R (Homo sapiens, UniProt P33032); test: Competitive inhibition binding assay, 125I-NDP-α-MSH, hMC5-R membranes; details: 1 μM test compound; 0.4 nM 125I-NDP-α-MSH; mean of triplicate; results less than 0% reported as 0%; read-out: Inhibition at 1 μM MC5-R
hMC5-R, sequence (P33032 whole entry): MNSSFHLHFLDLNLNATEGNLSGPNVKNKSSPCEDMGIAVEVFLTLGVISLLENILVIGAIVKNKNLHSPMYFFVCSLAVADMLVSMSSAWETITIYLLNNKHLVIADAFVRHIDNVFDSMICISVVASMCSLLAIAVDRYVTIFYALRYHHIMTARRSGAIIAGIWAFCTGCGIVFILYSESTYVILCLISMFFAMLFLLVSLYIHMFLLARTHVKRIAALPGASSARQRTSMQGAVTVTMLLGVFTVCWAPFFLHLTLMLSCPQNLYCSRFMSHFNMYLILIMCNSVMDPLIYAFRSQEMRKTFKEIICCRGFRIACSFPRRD
Method: as §1, §2

[1] = molecular target: T1, B-16 mouse melanoma cells (containing MC1-R) (Mus musculus, UniProt Q01727); test: Competitive inhibition binding assay, 125I-NDP-α-MSH, B-16 mouse melanoma cell membranes; details: 1 μM test compound; 0.4 nM 125I-NDP-α-MSH; mean of triplicate; results less than 0% reported as 0%; read-out: Inhibition at 1 μM MC1-R (murine)
T1 construct: B-16 mouse melanoma cells (containing MC1-R); endogenous in cells; host or cells: B-16 mouse melanoma cells
T1 sequence (Q01727 whole entry): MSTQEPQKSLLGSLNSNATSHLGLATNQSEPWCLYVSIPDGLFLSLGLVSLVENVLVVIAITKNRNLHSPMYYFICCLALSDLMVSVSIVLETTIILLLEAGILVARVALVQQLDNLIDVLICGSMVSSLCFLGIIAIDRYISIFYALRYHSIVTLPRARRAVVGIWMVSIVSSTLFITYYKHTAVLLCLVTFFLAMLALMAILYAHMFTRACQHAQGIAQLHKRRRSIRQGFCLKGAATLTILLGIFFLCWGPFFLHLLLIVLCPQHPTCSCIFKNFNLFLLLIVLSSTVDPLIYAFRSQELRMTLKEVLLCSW
Method: as §1, §2

hMC3-R = hMC3-R (Homo sapiens, UniProt P41968); test: Competitive inhibition binding assay, 125I-NDP-α-MSH, hMC3-R membranes; details: 1 μM test compound; 0.4 nM 125I-NDP-α-MSH; mean of triplicate; results less than 0% reported as 0%; read-out: Inhibition at 1 μM MC3-R
hMC3-R, sequence (P41968 whole entry): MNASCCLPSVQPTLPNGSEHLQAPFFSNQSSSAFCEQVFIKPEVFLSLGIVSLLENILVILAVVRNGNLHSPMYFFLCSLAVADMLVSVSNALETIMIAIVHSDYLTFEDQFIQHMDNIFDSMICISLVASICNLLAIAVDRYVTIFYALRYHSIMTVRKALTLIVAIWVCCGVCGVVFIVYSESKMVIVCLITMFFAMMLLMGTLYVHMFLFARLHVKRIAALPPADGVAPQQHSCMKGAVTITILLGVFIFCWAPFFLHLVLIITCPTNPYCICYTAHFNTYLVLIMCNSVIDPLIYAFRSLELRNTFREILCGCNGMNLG
Method: as §1, §2

hMC4-R, sequence (P32245 whole entry): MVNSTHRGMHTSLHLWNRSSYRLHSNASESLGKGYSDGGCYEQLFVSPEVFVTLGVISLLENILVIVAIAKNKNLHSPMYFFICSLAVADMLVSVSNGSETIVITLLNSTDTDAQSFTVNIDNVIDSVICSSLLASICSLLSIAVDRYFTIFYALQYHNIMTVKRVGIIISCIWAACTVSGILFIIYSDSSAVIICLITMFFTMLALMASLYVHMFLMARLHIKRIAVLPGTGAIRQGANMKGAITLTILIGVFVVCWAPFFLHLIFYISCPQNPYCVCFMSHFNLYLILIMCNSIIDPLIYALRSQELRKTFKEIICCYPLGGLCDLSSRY

inhibition at 1 µM (hMC4-R) [%] | inhibition at 1 µM (hMC5-R) [%] | inhibition at 1 µM [1] [%] | inhibition at 1 µM (hMC3-R) [%] | SMILES
38 | -4 | 0 | 0 | CCCC(CCC)C(=O)N[C@H](Cc1ccc(Cl)cc1)C(=O)N1CCN[C@H](Cc2ccc3ccccc3c2)C1 [Example 28, 2-Propyl-pentanoic acid [(R)-1-(4-chloro-benzyl)-2-((R)-3-naphthalen-2-ylmethyl-piperazin-1-yl)-2-oxo-ethyl]-amide]
36 | 27 | 2 | 54 | N[C@@H](COCc1ccccc1)C(=O)N[C@H](Cc1ccc(Cl)cc1)C(=O)N1CCN[C@H](Cc2ccc3ccccc3c2)C1 [Example 22, (S)-2-Amino-3-benzyloxy-N—[(R)-1-(4-chloro-benzyl)-2-((R)-3-naphthalen-2-ylmethyl-piperazin-1-yl)-2-oxo-ethyl]-propionamide]
19 | 18 | 5 | 6 | O=C(Cc1ccccc1)N[C@H](Cc1ccc(Cl)cc1)C(=O)N1CCN[C@H](Cc2ccc3ccccc3c2)C1 [Example 25, N—[(R)-1-(4-Chloro-benzyl)-2-((R)-3-naphthalen-2-ylmethyl-piperazin-1-yl)-2-oxo-ethyl]-2-phenyl-acetamide]
25 | 0 | 71 | 18 | N[C@@H](Cc1c[nH]cn1)C(=O)N[C@H](Cc1ccc(Cl)cc1)C(=O)N1CCN[C@H](Cc2ccc3ccccc3c2)C1 [Example 20, (S)-2-Amino-N—[(R)-1-(4-chloro-benzyl)-2-((R)-3-naphthalen-2-ylmethyl-piperazin-1-yl)-2-oxo-ethyl]-3-(1H-imidazol-4-yl)-propionamide]
13 | 4 | 6 | 0 | CC(=O)N[C@H](Cc1ccc(Cl)cc1)C(=O)N1CCN[C@H](Cc2ccc3ccccc3c2)C1 [Example 23, N—[(R)-1-(4-Chloro-benzyl)-2-((R)-3-naphthalen-2-ylmethyl-piperazin-1-yl)-2-oxo-ethyl]-acetamide]
21 | 0 | 5 | 0 | N[C@H](Cc1ccc(Cl)cc1)C(=O)N1CCN[C@H](Cc2ccc3ccccc3c2)C1 [Example 19, (R)-2-Amino-3-(4-chloro-phenyl)-1-((R)-3-naphthalen-2-ylmethyl-piperazin-1-yl)-propan-1-one]
0 | 12 | 52 | 18 | N[C@@H](Cc1c[nH]cn1)C(=O)N[C@H](Cc1ccccc1Cl)C(=O)N1CCN[C@H](Cc2ccc3ccccc3c2)C1 [Example 12, (S)-2-Amino-N—[(R)-1-(2-chloro-benzyl)-2-((R)-3-naphthalen-2-ylmethyl-piperazin-1-yl)-2-oxo-ethyl]-3-(1H-imidazol-4-yl)-propionamide]

More lines, now with the values behind:

SMILES | inhibition at 1 µM (hMC4-R) [%] | inhibition at 1 µM (hMC5-R) [%] | inhibition at 1 µM [1] [%] | inhibition at 1 µM (hMC3-R) [%]
CC(=O)Oc1ccccc1C(=O)N[C@H](Cc1ccc(Cl)cc1)C(=O)N1CCN[C@H](Cc2ccc3ccccc3c2)C1 [Example 27] | 4 | 0 | 10 | 0
O=C(CCCc1ccccc1)N[C@H](Cc1ccc(Cl)cc1)C(=O)N1CCN[C@H](Cc2ccc3ccccc3c2)C1 [Example 24, N—[(R)-1-(4-Chloro-benzyl)-2-((R)-3-naphthalen-2-ylmethyl-piperazin-1-yl)-2-oxo-ethyl]-4-phenyl-butyramide] | 20 | 13 | 5 | 3
Cc1ccc(S(=O)(=O)N[C@H](Cc2ccc(Cl)cc2)C(=O)N2CCN[C@H](Cc3ccc4ccccc4c3)C2)cc1 [Example 26, N—[(R)-1-(4-Chloro-benzyl)-2-((R)-3-naphthalen-2-ylmethyl-piperazin-1-yl)-2-oxo-ethyl]-4-methyl-benzenesulfonamide] | 22 | 20 | 10 | 14
N[C@@H](COCc1ccccc1)C(=O)N[C@H](Cc1ccccc1Cl)C(=O)N1CCN[C@H](Cc2ccc3ccccc3c2)C1 [Example 14, (S)-2-Amino-3-benzyloxy-N—[(R)-1-(2-chloro-benzyl)-2-((R)-3-naphthalen-2-ylmethyl-piperazin-1-yl)-2-oxo-ethyl]-propionamide] | 56 | 23 | 46 | 33
N[C@H](Cc1ccc(Cl)cc1Cl)C(=O)N1C[C@@H](Cc2ccccc2)NC[C@@H]1Cc1ccccc1 [Example 16, (R)-2-Amino-1-((2S,5R)-2,5-dibenzyl-piperazin-1-yl)-3-(2,4-dichloro-phenyl)-propan-1-one] | 14 | 0 | 0 | 0
N[C@H](Cc1ccc(Cl)cc1Cl)C(=O)N1C[C@H](Cc2ccccc2)NC[C@H]1Cc1ccccc1 [Example 10, (R)-2-Amino-1-((2R,5S)-2,5-dibenzyl-piperazin-1-yl)-3-(2,4-dichloro-phenyl)-propan-1-one] | 13 | 0 | 0 | 0
O=C(N[C@H](Cc1ccc(Cl)cc1)C(=O)N1CCN[C@H](Cc2ccc3ccccc3c2)C1)[C@H]1Cc2ccccc2CN1 [Example 21, (R)-1,2,3,4-Tetrahydro-isoquinoline-3-carboxylic acid [(R)-1-(4-chloro-benzyl)-2-((R)-3-naphthalen-2-ylmethyl-piperazin-1-yl)-2-oxo-ethyl]-amide] | 30 | 14 | 6 | 26
N[C@H](Cc1ccc2ccccc2c1)C(=O)N1C[C@H](Cc2ccccc2)NC[C@H]1Cc1ccccc1 [Example 8, (R)-2-Amino-1-((2R,5S)-2,5-dibenzyl-piperazin-1-yl)-3-naphthalen-2-yl-propan-1-one] | 0 | 10 | 0 | 0
O=C(N[C@H](Cc1ccccc1Cl)C(=O)N1CCN[C@H](Cc2ccc3ccccc3c2)C1)[C@H]1Cc2ccccc2CN1 [Example 13, (R)-1,2,3,4-Tetrahydro-isoquinoline-3-carboxylic acid [(R)-1-(2-chloro-benzyl)-2-((R)-3-naphthalen-2-ylmethyl-piperazin-1-yl)-2-oxo-ethyl]-amide] | 19 | 20 | 24 | 17
N[C@H](Cc1ccc2ccccc2c1)C(=O)N1C[C@@H](Cc2ccccc2)NC[C@@H]1Cc1ccccc1 [Example 15, (R)-2-Amino-1-((2S,5R)-2,5-dibenzyl-piperazin-1-yl)-3-naphthalen-2-yl-propan-1-one] | 18 | 3 | 0 | 0
N[C@H](Cc1ccccc1Cl)C(=O)N1CCN[C@H](Cc2ccc3ccccc3c2)C1 [Example 11, (R)-2-Amino-3-(2-chloro-phenyl)-1-((R)-3-naphthalen-2-ylmethyl-piperazin-1-yl)-propan-1-one] | 9 | 0 | 4 | 19
N[C@@H](Cc1ccccc1)C(=O)N1C[C@@H](Cc2ccccc2)NC[C@@H]1Cc1ccccc1 [Example 18, (S)-2-Amino-1-((2S,5R)-2,5-dibenzyl-piperazin-1-yl)-3-phenyl-propan-1-one] | 8 | 12 | 0 | 0
N[C@@H](Cc1ccccc1)C(=O)N1C[C@H](Cc2ccccc2)NC[C@H]1Cc1ccccc1 [Example 9, (S)-2-Amino-1-((2R,5S)-2,5-dibenzyl-piperazin-1-yl)-3-phenyl-propan-1-one] | 0 | 0 | 0 | 0
N[C@H](Cc1ccccc1)C(=O)N1C[C@@H](Cc2ccccc2)NC[C@@H]1Cc1ccccc1 [Example 17, (R)-2-Amino-1-((2S,5R)-2,5-dibenzyl-piperazin-1-yl)-3-phenyl-propan-1-One] | 6 | 3 | 0 | 0
